Legend:
Format in all cases: biochemical
MMP-12 = target: T1, MMP-12 (Homo sapiens, UniProt P39900); test: Assay for inhibitory activities on MMPs (fluorogenic peptide substrate), MMP-12
T1 construct: In regard to MMP-12, catalytic domain (^100Phe˜^263Gly) was amplified with RT-PCR; His-tag; enterokinase digestion-site
Protocol: In regard to MMP-12, catalytic domain (^100Phe˜^263Gly) was amplified with RT-PCR from Human Placenta Total RNA. This was cloned in Escherichia coli expression vector pTrc99AHE inserted with His-tag sequence and enterokinase digestion-site, induced and expressed by IPTG (Isopropyl-β-D-thiogalactopyranoside) and expressed in an insoluble fraction. Isolation of MMP-12 from an insoluble fraction was carried out by dissolving in modifier (6 M urea) by a usual method and purification with metal chelate chromatography (Ni Chelateing Sepharose). And then removing modifier (6 M urea) with dialysis and refolding of the enzyme spontaneously gave activated MMP-12.
(§1) The enzymatic activity on MMPs was analyzed by the method described in “C. Graham Knight, Frances Willenbrock and Gillian Murphy: A novel coumarin-labelled peptide for sensitive continuous assays of the matrix metalloproteinases: FEBS LETT., 296, (1992), 263-266”. The substrate: MOCAc-Pro-Leu-Gly-Leu-A2Pr(DNP)-Ala-Arg-NH2 was purchased from Peptide Institute, Inc., Osaka, Japan. The measurement of the inhibitory activities (IC50) was carried out by the following four methods;
(§2) (A) Reaction with substrate, enzyme (MMPs) and inhibitor
(§3) (B) Reaction with substrate and inhibitor, without enzyme
(§4) (C) Reaction with substrate and enzyme (MMPs), without inhibitor
(§5) (D) Reaction with substrate only
(§6) IC50 values were calculated by using the following formula and each fluorescence values of above four methods (A to D).
(§7) % inhibition={1-(A−B)/(C−D)}×100
(§8) IC50 means the concentration required to inhibit 50% of the enzyme activity.
(§9) The value of inhibitory activity against MMP-2, MMP-8, MMP-9, MMP-12, and MMP-13 measured by above mentioned methods are shown in Table 25 and 26.

MMP-9 = MMP-9 (Homo sapiens, UniProt P14780); test: Assay for inhibitory activities on MMPs (fluorogenic peptide substrate), MMP-9
Sequence of MMP-9 (P14780 107-707): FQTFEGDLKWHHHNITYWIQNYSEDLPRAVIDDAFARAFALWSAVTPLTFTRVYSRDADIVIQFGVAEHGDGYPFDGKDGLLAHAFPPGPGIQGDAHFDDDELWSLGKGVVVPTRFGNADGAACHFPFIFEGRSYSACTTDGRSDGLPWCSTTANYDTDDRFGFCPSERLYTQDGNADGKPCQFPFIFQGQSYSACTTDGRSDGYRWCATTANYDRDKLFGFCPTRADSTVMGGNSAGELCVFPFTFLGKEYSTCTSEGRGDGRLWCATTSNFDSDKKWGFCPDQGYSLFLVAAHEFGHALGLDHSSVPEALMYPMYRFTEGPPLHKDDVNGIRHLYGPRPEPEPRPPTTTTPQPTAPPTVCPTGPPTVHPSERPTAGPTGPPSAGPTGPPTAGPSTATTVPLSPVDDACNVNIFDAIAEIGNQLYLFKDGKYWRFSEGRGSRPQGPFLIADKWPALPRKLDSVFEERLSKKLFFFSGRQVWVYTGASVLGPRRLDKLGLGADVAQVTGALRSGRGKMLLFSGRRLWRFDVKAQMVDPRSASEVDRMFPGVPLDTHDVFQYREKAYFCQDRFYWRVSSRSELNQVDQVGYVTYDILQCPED
From the text: MMP-9 was isolated and purified by the procedure of Y. Okada et al. (Yasunori Okada, Yukio Gonoji, Katsumi Naka, Katsuro Tomita, Isao Nakanishi, Kazushi Iwata, Kyoko Yamashita, and Taro Hayakawa: Matrix metalloproteinase 9 (92-kDa gelatinase/type IV collagenase) from HT1080 human fibrosarcoma cells. Purification and activation of the precursor and enzymic properties, J. Biol. Chem., 1992, 267, 21712-21719) in combination with other following methods: 1) Yasunori Okada, Tatsuhisa Morodomi, Jan J, Enghild, Ko Suzuki, Atsushi Yasui, Isao Nakanishi, Guy Salvesen and Hideaki Nagase: Matrix metalloproteinase 2 from human rheumatoid synovial fibroblasts. Purification and activation of the precursor and enzymic properties, Eur. J. Biochem., 1990, 194, 721-730; 2) Robin V Ward, Rosalind M Hembry, John J Reynolds and Gillian Murphy: The purification of tissue inhibitor of metalloproteinase-2 from its 72 kDa progelatinase complex. Biochem. J., 1991, 278, 179-187. In detail, human fibrosarcoma ATCC HT1080 cell line was cultured to confluent in Dulbecco's Modified Medium (DMEM) containing 10% fetal-calf serum at 37° C. for 48 hours. Subsequently, the medium of confluent culture was changed to serum-free DMEM medium. To obtain MMP-9, phorbol-12-myristate-13-acetate (TPA) must be added to this serum-free DMEM medium at a concentration of 50 ng/ml. The TPA-treated medium was centrifuged at 3000 rpm for 15 min, and the supernatant was concentrated to 450 ml by a Toyo-Roshi UP-20 apparatus with an ultrafiltration membrane. Then, proMMP-9 in this concentrated solution was purified by using columns of Gelatin-Sepharose and Concanavalin A-Sepharose. The pool containing proMMP-9 was dialyzed, concentrated (Toyo-Roshi UP-20) and applied to columns of Sephacryl S-200 and Green A matrix for the separation from TIMPs. The obtained proMMP-9 fraction was activated by TPCK-Trypsin (Final conc.: 3 μg/501 React Mix.).
as §1, §2, §3, §4, §5, §6, §7, §8, §9

MMP-8 = target: T2, MMP-8 (Homo sapiens, UniProt P22894); test: Assay for inhibitory activities on MMPs (fluorogenic peptide substrate), MMP-8
T2 construct: In regard to MMP-8, catalytic domain (^99Phe˜^262Gly) was amplified with PCR; His-tag; enterokinase digestion-site
T2 sequence (P22894 99-262): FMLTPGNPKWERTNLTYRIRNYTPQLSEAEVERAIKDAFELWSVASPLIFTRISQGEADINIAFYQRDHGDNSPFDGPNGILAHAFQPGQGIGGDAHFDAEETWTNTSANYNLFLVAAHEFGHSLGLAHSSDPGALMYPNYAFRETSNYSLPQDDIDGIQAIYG
From the text: In regard to MMP-8, catalytic domain (^99Phe˜^262Gly) was amplified with PCR using commercial available Human Bone Marrow cDNA. This was cloned in Escherichia coli expression vector pTrc99AHE inserted with His-tag sequence and enterokinase digestion-site, induced and expressed by IPTG (Isopropyl-β-D-thiogalactopyranoside) and expressed in a insoluble fraction (Than F. Ho, M. Walid Qoronfleh, Robert C. Wahl, Trica A. Pulvino, Karen J. Vavra, Joe Falvo, Tracey M. Banks, Patricia G. Brake and Richard B. Ciccarelli: Gene expression, purification and characterization of recombinant human neutrophil collagenase. Gene 146, (1994) 297-301. It was prepared by the method in a slight modification). Isolation of MMP-8 from an insoluble fraction was carried out by dissolving in modifier (6 M urea) by a usual method and purification with metal chelate chromatography. And then removing modifier (6 M urea) with dialysis and refolding of the enzyme spontaneously gave activated MMP-8.
as §1, §2, §3, §4, §5, §6, §7, §8, §9

MMP-2 = target: T3, MMP-2 (Homo sapiens, UniProt P08253); test: Assay for inhibitory activities on MMPs (fluorogenic peptide substrate), MMP-2
T3 sequence (P08253 110-660): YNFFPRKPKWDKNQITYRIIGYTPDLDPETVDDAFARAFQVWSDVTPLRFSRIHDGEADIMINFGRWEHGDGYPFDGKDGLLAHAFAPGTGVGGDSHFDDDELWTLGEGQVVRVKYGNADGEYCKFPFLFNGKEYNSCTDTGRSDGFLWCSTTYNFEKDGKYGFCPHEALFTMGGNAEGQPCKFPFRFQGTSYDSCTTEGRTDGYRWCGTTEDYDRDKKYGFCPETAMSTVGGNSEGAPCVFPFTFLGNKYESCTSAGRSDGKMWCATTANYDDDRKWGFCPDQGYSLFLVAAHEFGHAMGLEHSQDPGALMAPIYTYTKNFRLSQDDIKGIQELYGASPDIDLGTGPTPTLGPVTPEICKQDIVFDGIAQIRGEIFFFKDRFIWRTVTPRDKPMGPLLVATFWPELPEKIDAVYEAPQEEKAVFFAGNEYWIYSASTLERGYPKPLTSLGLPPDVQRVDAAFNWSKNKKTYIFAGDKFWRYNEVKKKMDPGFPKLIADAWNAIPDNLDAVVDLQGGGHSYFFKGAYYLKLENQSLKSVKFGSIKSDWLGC
Protocol: MMP-2 was purchased from Calbiochem-Novabiochem International, Inc.
as §1, §2, §3, §4, §5, §6, §7, §8, §9

MMP-13 = target: T4, MMP-13 (Homo sapiens, UniProt P45452); test: Assay for inhibitory activities on MMPs (fluorogenic peptide substrate), MMP-13
T4 construct: catalytic domain (^104Tyr˜^267Gly) was amplified with RT-PCR; His-tag; enterokinase digestion-site
Protocol: In regard to MMP-13, mRNA was prepared from carcinoma cell SW1353 derived from human cartilage stimulate by IL-1 and TNF, and catalytic domain (^[…]) was amplified with RT-PCR. This was cloned in Escherichia coli expression vector […] inserted with His-tag sequence and enterokinase digestion-site, induced and expressed by IPTG (Isopropyl-β-D-thiogalactopyranoside) and expressed in an insoluble fraction. Isolation of MMP-13 from an insoluble fraction was carried out by dissolving in modifier (6 M urea) by a usual method and purification with metal chelate chromatography (Ni […] Sepharose). And then removing modifier (6 M urea) with dialyze and refolding of the enzyme spontaneously gave activated MMP-13. The enzymatic activity on MMPs was analyzed by the method described in “C. Graham Knight, Frances Willenbrock and Gillian Murphy: A novel coumarin-labelled peptide for sensitive continuous assays of the matrix metalloproteinases: FEBS LETT., 296, (1992), 263-266”. The substrate: MOCAc-[…] was purchased from Peptide Institute, Inc., Osaka, Japan. The measurement of the inhibitory activities (IC50) was carried out by the following four methods; (A) Reaction with substrate, enzyme (MMPs) and inhibitor (B) Reaction with substrate and inhibitor, without enzyme (C) Reaction with substrate and enzyme (MMPs), without inhibitor (D) Reaction with substrate only IC50 values were calculated by using the following formula and each fluorescence values of above four methods (A to D). % inhibition={1-(A-B)/(C-D)}×100 IC50 means the concentration required to inhibit 50% of the enzyme activity. The value of inhibitory activity against MMP-2, MMP-8, MMP-9, MMP-12, and MMP-13 measured by above mentioned methods are shown in Table 25 and 26.

T1 sequence (P39900 100-263): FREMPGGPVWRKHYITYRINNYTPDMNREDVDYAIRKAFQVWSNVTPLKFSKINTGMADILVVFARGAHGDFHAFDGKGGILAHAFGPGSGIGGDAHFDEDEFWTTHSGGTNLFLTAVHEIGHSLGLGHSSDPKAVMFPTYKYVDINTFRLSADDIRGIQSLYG

Structure (SMILES)	IC50 (MMP-12) [µM]	IC50 (MMP-9) [µM]	IC50 (MMP-8) [µM]	IC50 (MMP-2) [µM]	IC50 (MMP-13) [µM]
O=C(Nc1ccc(-c2ccc(S(=O)(=O)N[C@H](Cc3ccccc3)C(=O)O)cc2)cc1)c1ccccc1 [VI-2]	> 10	> 10	> 10	0.371	0.0736
COc1ccc2cc(C#Cc3ccc(-c4ccc(S(=O)(=O)N[C@H](CC(C)C)C(=O)O)cc4)cc3)ccc2c1 [III-22]	9.68	> 10	5.71	> 10	0.0557
COc1ccc2cc(C#Cc3ccc(-c4ccc(S(=O)(=O)N[C@H](C)C(=O)O)cc4)cc3)ccc2c1 [III-17]	> 10	> 10	> 10	> 10	0.0056
O=C(O)[C@H](Cc1ccccc1)NS(=O)(=O)c1ccc(-c2ccc(C#Cc3ccc4ccccc4c3)cc2)cc1 [III-12]	0.888	> 10	0.27	8.99	0.0357
COc1ccc2cc(C#Cc3ccc(-c4ccc(S(=O)(=O)N[C@H](CO)C(=O)O)cc4)cc3)ccc2c1 [III-44]	5.29	> 10	> 10	5.01	0.00349
COCC(NS(=O)(=O)c1ccc(-c2ccc(C#Cc3ccc4cc(OC)ccc4c3)cc2)cc1)C(=O)O (centres unmarked) [III-50]	0.125	> 10	0.243	0.0506	0.0138
CC(C)[C@@H](NS(=O)(=O)c1ccc(-c2ccc(C#Cc3ccc4ccccc4c3)cc2)cc1)C(=O)O [III-4]	0.0474	> 10	0.0401	0.0726	0.00454
COc1ccc2cc(C#Cc3ccc(-c4ccc(S(=O)(=O)N[C@H](CSC)C(=O)O)cc4)cc3)ccc2c1 [III-49]	0.118	> 10	0.109	> 10	0.0508
C[C@H](NS(=O)(=O)c1ccc(-c2ccc(C#Cc3ccc4ccccc4c3)cc2)cc1)C(=O)O [III-3]	0.0709	> 10	0.0563	> 10	0.00786
COc1ccc2cc(C#Cc3ccc(-c4ccc(S(=O)(=O)N[C@H](CCSC)C(=O)O)cc4)cc3)ccc2c1 [III-24]	0.146	> 10	0.19	0.239	0.00632
COc1ccc2cc(C#Cc3ccc(-c4ccc(S(=O)(=O)N[C@@H](Cc5ccccc5)C(=O)O)cc4)cc3)ccc2c1 [III-29]	> 10	> 10	5.3	> 10	0.0788

Next, values leading:

IC50 (MMP-12) [µM]	IC50 (MMP-9) [µM]	IC50 (MMP-8) [µM]	IC50 (MMP-2) [µM]	IC50 (MMP-13) [µM]	Structure (SMILES)
> 10	> 10	> 10	> 10	0.178	CC(C)C[C@@H](NS(=O)(=O)c1ccc(-c2ccc(NC(=O)c3ccc4ccccc4c3)cc2)cc1)C(=O)O [VI-41]
1.02	> 10	1.1	0.563	0.0771	COc1cccc(C(=O)Nc2ccc(-c3ccc(S(=O)(=O)N[C@H](C)C(=O)O)cc3)cc2)c1 [VI-16]
> 10	> 10	> 10	0.235	0.0394	O=C(Nc1ccc(-c2ccc(S(=O)(=O)N[C@H](Cc3ccccc3)C(=O)O)cc2)cc1)c1ccc(F)cc1 [VI-6]
0.522	> 10	> 10	0.105	0.0368	C[C@@H](NS(=O)(=O)c1ccc(-c2ccc(NC(=O)c3ccc(OC(F)(F)F)cc3)cc2)cc1)C(=O)O [VI-21]
> 10	> 10	5.4	0.664	0.0811	CC(C)[C@@H](NS(=O)(=O)c1ccc(-c2ccc(NC(=O)c3ccc4ccccc4c3)cc2)cc1)C(=O)O [VI-39]
0.503	> 10	0.641	0.167	0.0272	O=C(C#Cc1ccccc1)Nc1ccc(-c2ccc(S(=O)(=O)N[C@H](Cc3ccccc3)C(=O)O)cc2)cc1 [VI-13]
0.952	> 10	> 10	0.127	0.0356	Cc1ccc(C(=O)Nc2ccc(-c3ccc(S(=O)(=O)N[C@H](C)C(=O)O)cc3)cc2)cc1 [VI-17]
0.0957	> 10	0.14	3.72	0.0262	CC(C)[C@@H](NS(=O)(=O)c1ccc(-c2ccc(COc3ccc4ccccc4c3)cc2)cc1)C(=O)O [VII-12]

Source: patent publication US20080119513A1, “Sulfonamide Derivative Selectively Inhibiting Mmp-13” (priority 2004, published 2008)
